pKi: −log10 of the molar value.
Columns and labels:
Adenosine deaminase = molecular target: T1, Adenosine deaminase (Bos taurus, UniProt P56658); test: Inhibition constant against Adenosine deaminase was determined from calf intestinal mucosa
T1 sequence (P56658 whole entry): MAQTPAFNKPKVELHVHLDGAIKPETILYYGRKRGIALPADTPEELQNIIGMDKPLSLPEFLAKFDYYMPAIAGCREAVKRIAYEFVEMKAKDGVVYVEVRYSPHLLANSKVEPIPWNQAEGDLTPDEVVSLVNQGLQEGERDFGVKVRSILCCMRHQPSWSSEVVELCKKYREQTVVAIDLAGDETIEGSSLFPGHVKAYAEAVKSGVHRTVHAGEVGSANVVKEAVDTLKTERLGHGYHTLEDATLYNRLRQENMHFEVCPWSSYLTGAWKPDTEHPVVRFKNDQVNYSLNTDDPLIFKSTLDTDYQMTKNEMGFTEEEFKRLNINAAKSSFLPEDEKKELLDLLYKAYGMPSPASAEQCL

Bos taurus = species: Bos taurus; test: Kinetic constant (Vmax) against Adenosine Aminohydrolase was determined from calf intestinal mucosa; format: ADME; settings: cattle, in vitro
[1] = tested on: adenosine aminohydrolase (adenosine deaminase); test: Kinetic Constant (Km) against Adenosine Aminohydrolase was determined from calf intestinal mucosa; format: ADME, Bos taurus; settings: cattle

SMILES	pKi (Adenosine deaminase)	Vmax (Bos taurus)	Km [1]
C=C[C@@H](C=O)O[C@@H](C=O)n1cnc2c(N)ncnc21	4.30		
CC(O)[C@@H](C=O)O[C@@H](C=O)n1cnc2c(N)ncnc21 (stereo partly drawn)	3.37	0.46 µmol/min/mg	350 µM
C=C[C@H](C=O)O[C@H](C=O)n1cnc2c(N)ncnc21	5.15		
CC(O)[C@H](C=O)O[C@@H](C=O)n1cnc2c(N)ncnc21 (stereo partly drawn)	3.43	0.41 µmol/min/mg	140 µM
